Data: US20230286923A1 (INIPHARM, INC., priority 2020, published 2023)

Legend:
[1] = target: T1, HSD17B13 enzyme (Homo sapiens (Human), UniProt Q7Z5P4); test: Estrone detection assay (LC/MS, conversion of estradiol to estrone) for HSD17B13 activity; format: biochemical; settings: substrate 4 µM estradiol, 6 mM NAD+, 30 nM enzyme
Description: The liquid chromatography/mass spectrometry (LC/MS) estrone detection assay monitors the conversion of estradiol to estrone by HSD17B13. This assay was undertaken in a 96wp format (Eppendorf deep well Plate 96/500) in an 80 µl reaction volume containing: 4 µM of Estradiol (E2; Cayman; #10006315), 6 mM NAD^+ (Sigma; #N0623) and 30 nM HSD17B13 enzyme (in-house; E. coli expressed His-tagged, purified, soluble protein) in a reaction containing 1 M potassium phosphate buffer pH 7.4, with 0.5% vehicle (DMSO). Reactions were incubated for 2 hours at 26.5° C., and estradiol (E2) conversion to estrone (E1) was quantitated by LC-MS/MS based analyte detection for both E2 and E1 using LCMS grade reagents.
Reactions were terminated by the addition of two volumes of acetonitrile (MeCN; LCMS grade; CAS# 75/05/8) containing deuterated (D4)-E1 used as internal standard (Clear Synth; #CS-T-54273; 500 ng/mL final concentration). Samples were applied to pre-prepared Bond Elut-C18 extraction cartridges (3 mL; Agilent; #12102028), washed and eluted in MeCN. Eluates were dried under nitrogen and re-suspended in 60% methanol (LCMS grade methanol; CAS# 67/56/1) before submission for analysis. Aqueous linearity for E2 and E1 were included for quantification.
Analysis of samples was undertaken on a XBridge BEH C18 column (Waters; #186003033) using 0.1% Diethyl Amine in MeCN (mobile phase A; DEA CAS# 109-89-7) and 0.1% Diethyl Amine in milli-Q water (mobile phase B) in a 3 min gradient allowing 25%B. Analytes were detected in negative mode using MRM analysis, with E2 having a RT of 1.85 min and E1 having a RT of 2 min. Activity of the enzyme, in the absence of NAD^+, was used to evaluate specificity of conversion. Enzyme activity in the presence of test samples was expressed as a percentage of the uninhibited enzyme activity, and plotted versus inhibitor concentration. Non-linear regression was performed using a four-parameter logistic model and GraphPad Prism software (GraphPad Software, La Jolla, CA). All assessments were undertaken in duplicate evaluations and pooled during extraction process and subsequently injected as duplicates for LC-MS/MS analysis.

[2] = target: T1, HSD17B13 enzyme; test: NADH detection assay (fluorescence based LTB3 assay) for HSD17B13 activity; format: biochemical; settings: substrate 25 µM LTB3, 3 mM NAD+, 125 nM enzyme
Description: The fluorescence based Leukotriene B3 (LTB3) assay monitors the fluorescence of NADH, which is generated from NAD+ during the dehydrogenation of the substrate LTB3. The reactions were performed in a 384-well plates (Greiner; #655076) in a 20 µl reaction volume containing the following reagents (final concentrations): 25 µM LTB3 (Cayman; #20109); 3 mM NAD^+ (Sigma; #N0623); 125 nM HSD17B13 enzyme (in-house; E. coli expressed His-tagged, purified, soluble protein); 1 M potassium phosphate buffer, pH 7.4; and 1% DMSO. Reactions were initiated by co-addition of NAD+ and enzyme, and monitored for 1 hour at 26.5° C. Generation of NADH was measured as the fluorescence signal (Excitation at 340 nm and Emission at 445 nm) at 1 hour minus the baseline fluorescence at t=0. Fluorescence signals in the absence of LTB3 (negative control values), were subtracted from all values so that the results reflected substrate-dependent production of NADH. NADH standards were included to allow the conversion of relative fluorescence units into rates of enzyme activity. Enzyme activity in the presence of test compounds was expressed as a percentage of the uninhibited enzyme activity, and plotted versus inhibitor concentration. Non-linear regression was performed using a four-parameter logistic model and Microsoft Excel Solver software Ten concentrations of inhibitor were tested in duplicate (in the range of 30 µM - 2.5 nM), and two independent concentration response assays were performed.

T1 sequence (Q7Z5P4 20-300): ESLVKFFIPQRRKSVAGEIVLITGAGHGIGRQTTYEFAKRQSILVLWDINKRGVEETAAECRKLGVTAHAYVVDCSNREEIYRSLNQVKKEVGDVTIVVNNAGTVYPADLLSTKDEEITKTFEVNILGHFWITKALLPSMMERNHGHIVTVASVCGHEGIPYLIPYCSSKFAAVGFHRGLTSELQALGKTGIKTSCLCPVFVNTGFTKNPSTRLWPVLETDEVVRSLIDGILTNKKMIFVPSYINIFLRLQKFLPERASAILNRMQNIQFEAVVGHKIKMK

Structure (SMILES) | IC50 [1] | IC50 [2]
Cn1c(-c2cccnc2)nc2cccc(NC(=O)c3ccc(O)c(Cl)c3)c2c1=O [Example 11, 3-chloro-4-hydroxy-N-(3-methyl-4-oxo-2-(pyridin-3-yl)-3,4-dihydroquinazolin-5-yl)benzamide] | 0.1 to 1 µM | 1 to 5 µM
COc1ccccc1CCn1cnc2cccc(NC(=O)c3ccc(O)c(C(F)(F)F)c3)c2c1=O [Example 32, 4-hydroxy-N-(3-(2-methoxyphenethyl)-4-oxo-3,4-dihydroquinazolin-5-yl)-3-(trifluoromethyl)benzamide] | ≤ 0.1 µM | ≤ 1 µM
COc1ccccc1CCn1cnc2c(c(NC(=O)c3ccc(O)c(F)c3)nn2C)c1=O [Example 28, 3-fluoro-4-hydroxy-N-(5-(2-methoxyphenethyl)-1-methyl-4-oxo-4,5-dihydro-1H-pyrazolo[3,4-d]pyrimidin-3-yl)benzamide] | 0.1 to 1 µM | 5 to 10 µM
COc1ccccc1CCn1cnc2cccc(NC(=O)c3ccnc(C(F)(F)F)c3)c2c1=O [Example 7, N-(3-(2-methoxyphenethyl)-4-oxo-3,4-dihydroquinazolin-5-yl)-2-(trifluoromethyl)isonicotinamide] | > 10 µM | > 10 µM
COc1ccccc1CCn1cnc2cccc(NC(=O)c3ccc(S(N)(=O)=O)c(Cl)c3)c2c1=O [Example 29, 3-chloro-N-(3-(2-methoxyphenethyl)-4-oxo-3,4-dihydroquinazolin-5-yl)-4-sulfamoylbenzamide] | > 10 µM | > 10 µM
CC(C)(C)CCn1cnc2cccc(NC(=O)c3cc(Cl)c(O)nn3)c2c1=O [Example 15, 5-chloro-N-(3-(3,3-dimethylbutyl)-4-oxo-3,4-dihydroquinazolin-5-yl)-6-hydroxypyridazine-3-carboxamide] | 1 to 10 µM | > 10 µM
COc1ccccc1CCn1cnc2cccc(NC(=O)c3ccc(-c4cc[nH]n4)c(F)c3)c2c1=O [Example 22, 3-fluoro-N-(3-(2-methoxyphenethyl)-4-oxo-3,4-dihydroquinazolin-5-yl)-4-(1H-pyrazol-3-yl)benzamide] | > 10 µM | 1 to 5 µM
O=C(Nc1cccc2ncn(CC3CC3)c(=O)c12)c1ccc(S(=O)(=O)NC(=O)c2ccccc2)c(Cl)c1 [Example 14, 4-(N-benzoylsulfamoyl)-3-chloro-N-(3-(cyclopropylmethyl)-4-oxo-3,4-dihydroquinazolin-5-yl)benzamide] | 1 to 10 µM | 1 to 5 µM
CC(C)(C)CCn1cnc2cccc(NC(=O)c3ccc(O)c(Cl)c3)c2c1=O [Example 10, 3-chloro-N-(3-(3,3-dimethylbutyl)-4-oxo-3,4-dihydroquinazolin-5-yl)-4-hydroxybenzamide] | ≤ 0.1 µM | ≤ 1 µM
COc1ccccc1CCn1cnc2cccc(NC(=O)c3ccc(CC(=O)O)c(F)c3)c2c1=O [Example 25, 2-(2-fluoro-4-((3-(2-methoxyphenethyl)-4-oxo-3,4-dihydroquinazolin-5-yl)carbamoyl)phenyl)acetic acid] | 1 to 10 µM | > 10 µM
COc1ccccc1CCn1cnc2cccc(NC(=O)c3ccc(P(=O)(O)O)c(F)c3)c2c1=O [Example 23, (2-fluoro-4-((3-(2-methoxyphenethyl)-4-oxo-3,4-dihydroquinazolin-5-yl)carbamoyl)phenyl)phosphonic acid] | > 10 µM | > 10 µM
